Assay results as given in article PMC11073612 (Nature structural & molecular biology, 2022).
Entries after “also recorded” stand apart in the source; their conditions may differ. Where no end group is shown, it is not given here.

How the values were obtained:
SSTR4 = test: BRET-based Gi3 activation assay at SSTR4; assay type: cell-based; details: HEK-293S, 10 min after ligand, n=3 biological replicates
SSTR2 ECL2 mutants = test: BRET assays comparing SST14 and SST28 at ECL2 mutants; assay type: cell-based; details: HEK-293S; for behavior of SST14 versus SST28 across ECL2 mutants: all of the mutants tested
SSTR3 H192A = test: BRET-based Gi3 activation assay, SSTR3 H192A; assay type: cell-based; details: HEK-293S
SSTR3 = test: BRET-based Gi3 activation assay at SSTR3; assay type: cell-based; details: HEK-293S, 10 min after ligand, n=3 biological replicates
[1] = system: SSTR2 ECL2+/4 (entire ECL2 from SSTR4); test: BRET-based Gi3 activation assay, SSTR2 ECL2+/4 chimera; assay type: cell-based; details: ECL2+/4 vs ECL2/4, HEK-293S, n=3
SSTR5 = test: BRET-based Gi3 activation assay at SSTR5; assay type: cell-based; details: HEK-293S, 10 min after ligand, n=3 biological replicates
[2] = system: SSTR2 R184 to proline mutant; test: BRET-based Gi3 activation assay, SSTR2 ECL2 mutant R184 to proline; assay type: cell-based; details: HEK-293S
SSTR1 = test: BRET-based Gi3 activation assay at SSTR1; assay type: cell-based; details: HEK-293S, 10 min after ligand, n=3 biological replicates
[3] = system: chimeric constructs of SSTR2 (ECL swaps); test: BRET-based Gi3 activation assay, SSTR2 ECL2/ECL3 chimeras; assay type: cell-based; details: HEK-293S, n=3; for ligand recognition, effect of ECL swaps: nearly all ECL2/ECL3 swaps
[4] = system: SSTR2 R184 to alanine mutant; test: BRET-based Gi3 activation assay, SSTR2 ECL2 mutant R184 to alanine; assay type: cell-based; details: HEK-293S
SSTR2 = test: BRET-based G protein activation assay at SSTR2; assay type: cell-based; details: HEK-293S, 10 min after ligand, n=3 biological replicates
SSTR3 H192T = test: BRET-based Gi3 activation assay, SSTR3 H192T; assay type: cell-based; details: HEK-293S
SSTR1–5 = details: cited from earlier work
SSTR2 Q187M = test: BRET-based Gi3 activation assay, SSTR2 Q187M; assay type: cell-based; details: HEK-293S, n=3 biological replicates
SSTR2 N276^6.55Q = test: BRET-based Gi3 activation assay, SSTR2 N276Q; assay type: cell-based; details: HEK-293S
SSTR2 Q102^2.63S = test: BRET-based Gi3 activation assay, SSTR2 Q102S; assay type: cell-based; details: HEK-293S

Substance	Gi3 BRET activation response (SSTR4)	behavior of SST14 versus SST28 across ECL2 mutants (SSTR2 ECL2 mutants)	SST14-stimulated G protein activation (effect of mutation) (SSTR3 H192A)	Gi3 BRET activation response (SSTR3)	SST14-induced signaling compared to the shorter SSTR4 ECL2 swap [1]	Gi3 BRET activation response (SSTR5)	SSTR2 activation (effect of mutation) [2]	Gi3 BRET activation response (SSTR1)	impairment by ECL swaps, SST14 versus octreotide ([3]; ECL swaps)	ligand recognition, effect of ECL swaps [3]	SSTR2 activation (effect of mutation) [4]	Gi3 BRET activation response (SSTR2)	SST14-stimulated G protein activation (effect of mutation) (SSTR3 H192T)	strength of SST28 relative to SST14 (SSTR2 ECL2 mutants; across all of the ECL2 mutants tested)	subtype selectivity (SSTR1–5)	octreotide signaling (effect of mutation) (SSTR2 Q187M)	octreotide signaling (effect of mutation) (SSTR2 N276^6.55Q)	octreotide-induced G protein signaling (effect of mutation) (SSTR2 Q102^2.63S)
SST14: endogenous 14-residue somatostatin peptide (Cayman, 20809)	comparable response	remarkably similar	deleterious to SST14-stimulated G protein activation	comparable response	improved SST14-induced signaling	comparable response	substantially reduces SSTR2 activation	comparable response	far greater impairment for SST14 than octreotide	impaired ligand recognition of SST14 and octreotide to some degree; also recorded: non-linear effect on SST14-induced signaling	substantially reduces SSTR2 activation	comparable response	deleterious to SST14-stimulated G protein activation	–	–	–	–	–
SST28: 28-residue somatostatin peptide (SANSNPAMAPRERKAGCKNFFWKTFTSC; ends and bridges not checked; cysteine pairing not given here)	–	remarkably similar	–	–	–	–	–	–	–	–	–	–	–	slightly weaker binder than SST14 (less than an order of magnitude)	–	–	–	–
lanreotide	–	–	–	–	–	–	–	–	–	–	–	–	–	–	SSTR2-selective	–	–	–
octreotide	almost no activity	–	–	reduced response	–	reduced response	substantially reduces SSTR2 activation	almost no activity	–	impaired ligand recognition of SST14 and octreotide to some degree	substantially reduces SSTR2 activation	activates SSTR2 most potently	–	–	–	enhances octreotide signaling	decreases octreotide signaling in a selective manner	selectively reduces octreotide-induced G protein signaling
